Where two headings read alike, the source gives them in different places.
Target: T1, mouse TMEM16A mutant R535A (Mus musculus, UniProt Q8BHY3, R535A)
T1 construct: expressed in transfected cells; host or cells: HEK293T
T1 sequence (Q8BHY3 1-960 R535A): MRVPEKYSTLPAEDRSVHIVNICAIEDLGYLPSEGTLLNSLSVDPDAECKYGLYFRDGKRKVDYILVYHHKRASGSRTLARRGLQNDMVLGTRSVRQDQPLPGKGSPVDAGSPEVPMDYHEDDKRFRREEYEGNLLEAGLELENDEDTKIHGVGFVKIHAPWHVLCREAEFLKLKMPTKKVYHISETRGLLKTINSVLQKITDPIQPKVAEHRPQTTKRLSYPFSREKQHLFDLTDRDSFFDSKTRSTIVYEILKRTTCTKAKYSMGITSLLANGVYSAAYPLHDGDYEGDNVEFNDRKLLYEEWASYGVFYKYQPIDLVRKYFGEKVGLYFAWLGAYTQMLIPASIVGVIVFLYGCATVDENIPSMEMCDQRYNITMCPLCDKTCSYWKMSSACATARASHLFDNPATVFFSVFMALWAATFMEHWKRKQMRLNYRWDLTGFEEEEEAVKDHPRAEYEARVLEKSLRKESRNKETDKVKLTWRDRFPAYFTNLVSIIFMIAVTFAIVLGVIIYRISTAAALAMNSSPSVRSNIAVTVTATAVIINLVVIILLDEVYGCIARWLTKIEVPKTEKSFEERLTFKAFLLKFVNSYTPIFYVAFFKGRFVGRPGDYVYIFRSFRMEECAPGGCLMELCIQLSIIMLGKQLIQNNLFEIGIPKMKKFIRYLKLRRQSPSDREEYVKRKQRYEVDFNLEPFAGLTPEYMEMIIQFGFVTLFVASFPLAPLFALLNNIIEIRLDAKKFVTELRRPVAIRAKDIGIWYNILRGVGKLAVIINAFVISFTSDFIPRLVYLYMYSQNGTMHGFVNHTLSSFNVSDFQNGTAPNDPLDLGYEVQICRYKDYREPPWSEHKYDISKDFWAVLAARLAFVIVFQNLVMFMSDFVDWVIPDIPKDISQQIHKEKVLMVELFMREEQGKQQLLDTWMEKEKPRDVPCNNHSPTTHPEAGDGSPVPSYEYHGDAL
Test: Inside-out patch recording of 1PBC block, mutant R535A
Assay type: cell-based
Conditions: for remaining activity at 100 µM: 100 µM 1PBC
Experimental: HEK293T cells (ATCC CRL-1573) were maintained in Dulbecco’s modified Eagle’s medium (DMEM; Sigma-Aldrich) supplemented with 10 U ml^−1 penicillin, 0.1 mg ml^−1 streptomycin (Sigma-Aldrich), 2 mM L-glutamine (Sigma-Aldrich), and 10% FBS (Sigma-Aldrich) in a humidified atmosphere containing 5% CO2 at 37 °C. HEK293S GnTI^− cells (ATCC CRL-3022) were maintained in HyClone HyCell TransFx-H medium (GE Healthcare) supplemented with 10 U ml^−1 penicillin, 0.1 mg ml^−1 streptomycin, 4 mM L-glutamine, 0.15% poloxamer 188 (Sigma-Aldrich), and 1% FBS in an atmosphere containing 5% CO2 at 185 rpm at 37 °C. The ac splice variant of mouse TMEM16A (UniProt ID: Q8BHY3), mouse TMEM16B (UniProt ID: Q8CFW1), or mouse TMEM16F (UniProt ID: Q6P9J9) bearing a 3C cleavage site, a Venus YFP, a Myc tag, and a Streptavidin-binding peptide (SBP) downstream of the open reading frame in a modified pcDNA3.1 vector (Invitrogen) were used as described previously[21],[31]. Mutations were introduced using a modified QuikChange method[58] and were verified by sequencing.
HEK293T cells were transfected with 3–4 μg DNA per 6 cm Petri dish using the calcium phosphate co-precipitation method and were used within 24–96 h after transfection. Recordings were performed on inside-out patches excised from HEK293T cells expressing the construct of interest. Patch pipettes were pulled from borosilicate glass capillaries (O.D. 1.5 mm, I.D. 0.86 mm, Sutter Instrument) and were fire-polished with a microforge (Narishige) before use. Pipette resistance was typically 3–8 MΩ when filled with the recording solutions detailed below. Seal resistance was typically 4 GΩ or higher. Voltage-clamp recordings were made using Axopatch 200B, Digidata 1550, and Clampex 10.7 (Molecular Devices). Analog signals were filtered with the in-built 4-pole Bessel filter at 10 kHz and were digitized at 20 kHz. Solution exchange was achieved using a gravity-fed system through a theta glass pipette mounted on an ultra-fast piezo-driven stepper (Siskiyou). […] All recordings were performed at 20 °C.
A symmetrical ionic condition was used throughout. Stock solution with Ca^2+-EGTA contained 150 mM NaCl, 5.99 mM Ca(OH)2, 5 mM EGTA, and 10 mM HEPES at pH 7.40. Stock solution with EGTA contained 150 mM NaCl, 5 mM EGTA, and 10 mM HEPES at pH 7.40. Free Ca^2+ concentrations were adjusted by mixing the stock solutions at the required ratios calculated using the WEBMAXC program (http://web.stanford.edu/~cpatton/webmaxcS.htm). Patch pipettes were filled with the stock solution with Ca^2+-EGTA, which has a free Ca^2+ concentration of 1 mM. 1PBC (ChemBridge) stock was reconstituted in anhydrous DMSO (Sigma-Aldrich) at 100 mM and stored at −20 °C. Working solutions with 1PBC were prepared by serial dilution. Unless otherwise stated, experiments were performed at a saturating Ca^2+ concentration as shown in Supplementary Table 1 and the primary data were corrected for current rundown as described previously[21],[25].
Concentration-response relations, obtained from the ratio of the I-V plots before and after the application of the blocker, were fitted to the Hill equation,1 I/Imax=1/1+IC50/[blocker]^h where I/Imax is the normalized current responses, IC50 defines the concentration at which inhibition is at its half-maximum, and h is the Hill coefficient.

IC50 (0 mV, 2 µM Ca2+): 11.9 µM | remaining activity at 3 µM (3 µM 1PBC, +80 mV, saturating Ca2+ (2 µM), read-out: I/Imax): 67.6% | remaining activity at 3 µM (3 µM 1PBC, -80 mV, saturating Ca2+ (2 µM), read-out: I/Imax): 91.3% | remaining activity at 10 µM (10 µM 1PBC, +80 mV, saturating Ca2+ (2 µM), read-out: I/Imax): 36.9% | remaining activity at 10 µM (10 µM 1PBC, -80 mV, saturating Ca2+ (2 µM), read-out: I/Imax): 70.8% | remaining activity at 30 µM (30 µM 1PBC, +80 mV, saturating Ca2+ (2 µM), read-out: I/Imax): 16.6% | remaining activity at 30 µM (30 µM 1PBC, -80 mV, saturating Ca2+ (2 µM), read-out: I/Imax): 46.3% | remaining activity at 100 µM (+80 mV, saturating Ca2+ (2 µM), read-out: I/Imax): 5.26% | remaining activity at 100 µM (-80 mV, saturating Ca2+ (2 µM), read-out: I/Imax): 21.3% | remaining activity at 3 µM (1PBC 3, 0 mV, read-out: fraction of unblocked current): 80.7% | remaining activity at 3 µM (1PBC 3, 20 mV, read-out: fraction of unblocked current): 76.3% | remaining activity at 3 µM (1PBC 3, 40 mV, read-out: fraction of unblocked current): 72.5% | remaining activity at 3 µM (1PBC 3, 60 mV, read-out: fraction of unblocked current): 69.3% | remaining activity at 3 µM (1PBC 3, 80 mV, read-out: fraction of unblocked current): 67.6% | remaining activity at 3 µM (1PBC 3, 100 mV, read-out: fraction of unblocked current): 65.8% | remaining activity at 3 µM (1PBC 3, 120 mV, read-out: fraction of unblocked current): 66% | remaining activity at 3 µM (1PBC 3, 140 mV, read-out: fraction of unblocked current): 66.6% | remaining activity at 3 µM (1PBC 3, -20 mV, read-out: fraction of unblocked current): 85.2% | remaining activity at 3 µM (1PBC 3, -40 mV, read-out: fraction of unblocked current): 87.7% | remaining activity at 3 µM (1PBC 3, -60 mV, read-out: fraction of unblocked current): 89.5% | remaining activity at 3 µM (1PBC 3, -80 mV, read-out: fraction of unblocked current): 91.3% | remaining activity at 3 µM (1PBC 3, -100 mV, read-out: fraction of unblocked current): 91.1% | remaining activity at 3 µM (1PBC 3, -120 mV, read-out: fraction of unblocked current): 92.2% | remaining activity at 3 µM (1PBC 3, -140 mV, read-out: fraction of unblocked current): 91.6% | remaining activity at 10 µM (1PBC 10, 0 mV, read-out: fraction of unblocked current): 53.9% | remaining activity at 10 µM (1PBC 10, 20 mV, read-out: fraction of unblocked current): 48.3% | remaining activity at 10 µM (1PBC 10, 40 mV, read-out: fraction of unblocked current): 43.7% | remaining activity at 10 µM (1PBC 10, 60 mV, read-out: fraction of unblocked current): 39.8% | remaining activity at 10 µM (1PBC 10, 80 mV, read-out: fraction of unblocked current): 36.9% | remaining activity at 10 µM (1PBC 10, 100 mV, read-out: fraction of unblocked current): 34.6% | remaining activity at 10 µM (1PBC 10, 120 mV, read-out: fraction of unblocked current): 34.7% | remaining activity at 10 µM (1PBC 10, 140 mV, read-out: fraction of unblocked current): 35.9% | remaining activity at 10 µM (1PBC 10, -20 mV, read-out: fraction of unblocked current): 59.6% | remaining activity at 10 µM (1PBC 10, -40 mV, read-out: fraction of unblocked current): 63.3% | remaining activity at 10 µM (1PBC 10, -60 mV, read-out: fraction of unblocked current): 67% | remaining activity at 10 µM (1PBC 10, -80 mV, read-out: fraction of unblocked current): 70.8% | remaining activity at 10 µM (1PBC 10, -100 mV, read-out: fraction of unblocked current): 73% | remaining activity at 10 µM (1PBC 10, -120 mV, read-out: fraction of unblocked current): 74.7% | remaining activity at 10 µM (1PBC 10, -140 mV, read-out: fraction of unblocked current): 75.4% | remaining activity at 30 µM (1PBC 30, 0 mV, read-out: fraction of unblocked current): 28.6% | remaining activity at 30 µM (1PBC 30, 20 mV, read-out: fraction of unblocked current): 24.4% | remaining activity at 30 µM (1PBC 30, 40 mV, read-out: fraction of unblocked current): 20.9% | remaining activity at 30 µM (1PBC 30, 60 mV, read-out: fraction of unblocked current): 18.1% | remaining activity at 30 µM (1PBC 30, 80 mV, read-out: fraction of unblocked current): 16.6% | remaining activity at 30 µM (1PBC 30, 100 mV, read-out: fraction of unblocked current): 15.4% | remaining activity at 30 µM (1PBC 30, 120 mV, read-out: fraction of unblocked current): 15.7% | remaining activity at 30 µM (1PBC 30, 140 mV, read-out: fraction of unblocked current): 16.3% | remaining activity at 30 µM (1PBC 30, -20 mV, read-out: fraction of unblocked current): 32.7% | remaining activity at 30 µM (1PBC 30, -40 mV, read-out: fraction of unblocked current): 36.9%
SMILES: N#Cc1c(C(F)(F)F)cc(O)n2c1nc1ccccc12 [1PBC]

Reference: paper PMC9120017, “Inhibition mechanism of the chloride channel TMEM16A by the pore blocker 1PBC” (Nature Communications, 2022)
